According to US20150344485A1, “BICYCLIC PYRIMIDONE COMPOUNDS AS INHIBITORS OF LP-PLA2” (GLAXOSMITHKLINE INTELLECTUAL PROPERTY DEVELOPMENT LIMITED, priority 2013, published 2015):
Read-outs that look alike come from different tables or passages of the source.

Columns and labels:
[1] = biological target: T1, recombinant human Lp-PLA2 (Homo sapiens, UniProt Q13093); test: Recombinant human Lp-PLA2 assay (rhLp-PLA2, PED6 assay); assay type: biochemical
T1 sequence (Q13093 22-441): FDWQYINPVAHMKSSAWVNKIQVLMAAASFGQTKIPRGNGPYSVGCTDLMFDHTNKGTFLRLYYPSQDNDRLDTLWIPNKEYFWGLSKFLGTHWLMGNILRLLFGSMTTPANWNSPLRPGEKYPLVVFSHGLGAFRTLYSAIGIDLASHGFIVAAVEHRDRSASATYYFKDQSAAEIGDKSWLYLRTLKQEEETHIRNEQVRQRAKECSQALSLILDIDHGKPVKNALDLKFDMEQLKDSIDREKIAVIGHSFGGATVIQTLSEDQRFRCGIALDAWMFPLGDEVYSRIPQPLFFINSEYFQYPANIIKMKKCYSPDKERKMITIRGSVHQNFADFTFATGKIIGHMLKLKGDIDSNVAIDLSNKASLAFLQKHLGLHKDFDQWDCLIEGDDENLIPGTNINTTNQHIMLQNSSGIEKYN
From the text: (1) Recombinant Human Lp-PLA2 Assay (rhLp-PLA2) (Also Referred to as “PED6” Assay)
N-((6-(2,4-dinitrophenyl)amino)-hexanoyl)-2-(4,4-difluoro-5,7-dimethyl-4-bora-3a,4a-diaza-s-indacene-3-pentanoyl)-1-hexadecanoyl-sn-glycero-3-phosphoethanolamine, triethylammonium salt (PED6) is a commercially available fluorescently-labeled phospholipid, which is commercially available from Invitrogene and Molecular Probes. There is a quenching para-nitro phenyl (PNP) group in the sn3 position and a Bodipy fluorescein (FL) group in the sn2 position. Upon cleavage with Lp-PLA2, the Bodipy FL group is liberated and then may result in an increase in fluorescence. Inhibitors of Lp-PLA2 therefore prevent this cleavage and no fluorescent increase is observed.
The PED6 assay was run as an unquenched 10 μL assay. The source plate containing the compounds to be tested was prepared by making 1:3 (by volume) serial dilution of the compounds within DMSO on 384-well microplate. Then, 0.01 μL of the compounds on compound source plate were transferred into 384 well Greiner 784076 (black) plates using ECHO liquid dispenser. 5 μL of recombinant human Lp-PLA2 enzyme (4 nM (or 110 pM) rhLp-PLA2 in assay buffer of 50 mM HEPES, pH 7.4, 150 mM NaCl, 1 mM CHAPS) was added to each well of the plate. Plates were centrifuged for 10 sec at 500 rpm. After 30 minutes preincubation, 5 μL of substrate (4 μM (or 5 μM) PED6 [from 5 mM DMSO stock] in assay buffer of 50 mM HEPES, pH 7.4, 150 mM NaCl, 1 mM CHAPS) was added to 384 well Greiner 784076 (black) plates. Plates were centrifuged for 10 sec at 500 rpm. The plate was covered to protect it from light and incubated for 20 min at room temperature. The plates were read for fluorescence intensity at ex: 480/em: 540 using ViewLux microplate imager for Envision spectrofluroimeters. pIC50 data, curve and QC analysis was conducted by using XL fit module in Excel.

[2] = biological target: T2, Lp-PLA2 in human plasma (Homo sapiens, UniProt Q13093); test: Lp-PLA2 human plasma assay (Thio-PAF assay); assay type: biochemical; details: pooled human plasma; read-out: pIC50 values in the thio-PAF assay (converted)
T2 construct: from tissue; host or cells: pooled human plasma
T2 sequence (Q13093 22-441): T1 sequence (Q13093 22-441)
From the text: The human plasma assay utilizes a thioester analog of PAF (phosphatidylcholine), where hydrolysis yields to the formation of a phospholipid containing a free thiol group. The amount of thiol is quantitated continuously by reacting with CPM (7-diethylamino-3-(4′-maleimidylphenyl)-4-methylcoumarin), a maleimide which increases in fluoresence after Michael addition of thiols. This assay may detect the activity of Lp-PLA2 in human plasma, as determined by specific inhibition by Lp-PLA2 inhibitors.
The thio-PAF assay was run as a quenched 15 μL assay. Compounds source plate was prepared by making 1:3 (by volume) serial dilution of the compounds into pure DMSO on 384-well microplate. 0.01 μL of compounds on compound source plate were transferred to 384 well Greiner 784076 (black) low-volume plates by ECHO liquid dispenser. 8 μL pooled human plasma, which was previously aliquoted and frozen, was added. Plates were centrifuged for 10 sec at 500 rpm. After 30 minutes preincubation, 2 μL of substrate solution comprising 2.5 mM 2-thio-PAF [from ethanol stock], 32 μM CPM [from a DMSO stock] and 3.2 mM NEM (N-ethylmaleimide) [made fresh daily in DMSO] in assay buffer of 50 mM HEPES, pH 7.4, 150 mM NaCl, 1 mM CHAPS was added to 384 well Greiner 784076 (black) low-volume plates by BRAVO liquid handling station. After 2 mins, reaction was quenched with 5 μL of 5% aqueous trifluoroacetic acid (TFA). Plates were covered to protect from light and incubated for 40 min at room temperature. Plates were read at ex: 380/em: 485 using-Envision microplate reader. pIC50 data, curve and QC analysis was conducted by using XLFit module in Excel.

[3] = read-out: pIC50 values in the recombinant human Lp-PLA2 assay (converted)
[4] = read-out: rhLp-PLA2 (PED6 assay) (pIC50) (converted)

| IC50 [1, 3] | IC50 [2] | IC50 [1, 4] | SMILES |
| --- | --- | --- | --- |
| ≤ 1 nM | ≤ 100 nM | – | CC1CCn2c(cc(OCc3ccc(F)c(F)c3)nc2=O)N1C (stereo not drawn) [E7, 8-((3,4-difluorobenzyl)oxy)-1,2-dimethyl-3,4-dihydro-1H-pyrimido[1,6-a]pyrimidin-6(2H)-one] |
| ≤ 1 nM | ≤ 100 nM | 0.398 nM | CC1CCn2c(cc(OCc3cc(F)c(F)c(F)c3)nc2=O)N1C (stereo not drawn) [E8, 1,2-dimethyl-8-((3,4,5-trifluorobenzyl)oxy)-3,4-dihydro-1H-pyrimido[1,6-a]pyrimidin-6(2H)-one] |
| – | – | 12.6 nM | [2H]C([2H])(Oc1cc2n(c(=O)n1)CC[C@@H](C)N2C)c1cc(F)c(F)cc1F [E23, (R)-8-(dideutero(2,4,5-trifluorophenyl)methoxy)-1,2-dimethyl-3,4-dihydro-1H-pyrimido[1,6-a]pyrimidin-6(2H)-one] |
| ≤ 1 nM | ≤ 100 nM | – | C[C@H]1CCn2c(cc(OCc3cc(F)c(F)c(F)c3)nc2=O)N1C [E35, (S)-1,2-dimethyl-8-((3,4,5-trifluorobenzyl)oxy)-3,4-dihydro-1H-pyrimido[1,6-a]pyrimidin-6(2H)-one] |
| ≤ 1 nM | ≤ 100 nM | – | C[C@H]1CCn2c(cc(OCc3ccc(F)c(F)c3)nc2=O)N1C [E37, (S)-8-((3,4-difluorobenzyl)oxy)-1,2-dimethyl-3,4-dihydro-1H-pyrimido[1,6-a]pyrimidin-6(2H)-one] |
| – | – | 50.1 nM | CC(C)Oc1ccc(COc2cc3n(c(=O)n2)CC[C@@H](C)N3C)cc1F [E51, (R)-8-((3-fluoro-4-isopropoxybenzyl)oxy)-1,2-dimethyl-3,4-dihydro-1H-pyrimido[1,6-a]pyrimidin-6(2H)-one] |
| ≤ 1 nM | – | 0.126 nM | CC(C)Oc1c(F)cc(COc2cc3n(c(=O)n2)CC[C@@H](C)N3C)cc1F [E82, (R)-8-((3,5-difluoro-4-isopropoxybenzyl)oxy)-1,2-dimethyl-3,4-dihydro-1H-pyrimido[1,6-a]pyrimidin-6(2H)-one] |
| ≤ 1 nM | – | – | CC(C)Oc1c(F)cc(COc2cc3n(c(=O)n2)CC[C@H](C)N3C)cc1F [E100, (S)-8-((3,5-difluoro-4-isopropoxybenzyl)oxy)-1,2-dimethyl-3,4-dihydro-1H-pyrimido[1,6-a]pyrimidin-6(2H)-one] |

The next lines start with the molecule.

| SMILES | IC50 [1, 3] | IC50 [2] | IC50 [1, 4] |
| --- | --- | --- | --- |
| CC1CCn2c(cc(OCc3ccc(Oc4ccc(C(F)(F)F)nc4)c(F)c3)nc2=O)N1 (stereo not drawn) [E1, 8-((3-fluoro-4-((6-(trifluoromethyl)pyridin-3-yl)oxy)benzyl)oxy)-2-methyl-3,4-dihydro-1H-pyrimido[1,6-a]pyrimidin-6(2H)-one] | ≤ 1 nM | ≤ 100 nM | – |
| CC1CCn2c(cc(OCc3ccc(Oc4ccc(C(F)(F)F)cc4)c(C#N)c3)nc2=O)N1 (stereo not drawn) [E2, 5-(((2-methyl-6-oxo-2,3,4,6-tetrahydro-1H-pyrimido[1,6-a]pyrimidin-8-yl)oxy)methyl)-2-(4-(trifluoromethyl)phenoxy)benzonitrile] | ≤ 1 nM | ≤ 100 nM | 0.126 nM |
| CC1CCn2c(cc(OCc3ccc(Oc4ccc(F)c(F)c4)c(F)c3)nc2=O)N1 (stereo not drawn) [E3, 8-((4-(3,4-difluorophenoxy)-3-fluorobenzyl)oxy)-2-methyl-3,4-dihydro-1H-pyrimido[1,6-a]pyrimidin-6(2H)-one] | ≤ 1 nM | ≤ 100 nM | – |
| CC1CCn2c(cc(OCc3ccc(F)c(F)c3)nc2=O)N1 (stereo not drawn) [E4, 8-((3,4-difluorobenzyl)oxy)-2-methyl-3,4-dihydro-1H-pyrimido[1,6-a]pyrimidin-6(2H)-one] | – | ≤ 100 nM | 3.16 nM |
| CC1CCn2c(cc(OCc3cc(F)c(Oc4cccc(F)c4)c(F)c3)nc2=O)N1 (stereo not drawn) [E5, 8-((3,5-difluoro-4-(3-fluorophenoxy)benzyl)oxy)-2-methyl-3,4-dihydro-1H-pyrimido[1,6-a]pyrimidin-6(2H)-one] | ≤ 1 nM | – | 0.398 nM |
| CC1CCn2c(cc(OCc3ccc(Oc4ccc(Cl)c(F)c4)c(C#N)c3)nc2=O)N1 (stereo not drawn) [E6, 2-(4-chloro-3-fluorophenoxy)-5-(((2-methyl-6-oxo-2,3,4,6-tetrahydro-1H-pyrimido[1,6-a]pyrimidin-8-yl)oxy)methyl)benzonitrile] | ≤ 1 nM | ≤ 100 nM | – |
| C[C@@H]1CCn2c(cc(OCc3ccc(F)c(F)c3)nc2=O)N1 [E28, (R)-8-((3,4-difluorobenzyl)oxy)-2-methyl-3,4-dihydro-1H-pyrimido[1,6-a]pyrimidin-6(2H)-one] | ≤ 1 nM | ≤ 100 nM | – |
| C[C@@H]1CCn2c(cc(OCc3cc(F)c(F)c(F)c3)nc2=O)N1 [E29, (R)-2-methyl-8-((3,4,5-trifluorobenzyl)oxy)-3,4-dihydro-1H-pyrimido[1,6-a]pyrimidin-6(2H)-one] | – | ≤ 100 nM | 1.26 nM |
| C[C@@H]1CCn2c(cc(OCc3ccc(OC4CCCC4)c(F)c3)nc2=O)N1C [E48, (R)-8-((4-(cyclopentyloxy)-3-fluorobenzyl)oxy)-1,2-dimethyl-3,4-dihydro-1H-pyrimido[1,6-a]pyrimidin-6(2H)-one] | – | – | 7.94 nM |
| C[C@@H]1CCn2c(cc(OCc3ccc(OC4CCCCC4)c(F)c3)nc2=O)N1C [E67, (R)-8-((4-(cyclohexyloxy)-3-fluorobenzyl)oxy)-1,2-dimethyl-3,4-dihydro-1H-pyrimido[1,6-a]pyrimidin-6(2H)-one] | – | – | 5.01 nM |
| CC(C)N1c2cc(OCc3ccc(F)c(F)c3)nc(=O)n2CC[C@H]1C [E69, (R)-8-((3,4-difluorobenzyl)oxy)-1-isopropyl-2-methyl-3,4-dihydro-1H-pyrimido[1,6-a]pyrimidin-6(2H)-one] | ≤ 1 nM | – | – |
| C[C@H]1CCn2c(cc(OCc3cc(F)c(OC4CCCCC4)c(F)c3)nc2=O)N1C [E81, (S)-8-((4-(cyclohexyloxy)-3,5-difluorobenzyl)oxy)-1,2-dimethyl-3,4-dihydro-1H-pyrimido[1,6-a]pyrimidin-6(2H)-one] | ≤ 1 nM | – | – |
| C[C@@H]1CCn2c(cc(OCc3cc(F)c(OC4CCCCC4)c(F)c3)nc2=O)N1C [E83, (R)-8-((4-(cyclohexyloxy)-3,5-difluorobenzyl)oxy)-1,2-dimethyl-3,4-dihydro-1H-pyrimido[1,6-a]pyrimidin-6(2H)-one] | ≤ 1 nM | – | – |
| CN1c2cc(OCc3cccc(F)c3)nc(=O)n2CCC1(C)C [E134, 8-((3-fluorobenzyl)oxy)-1,2,2-trimethyl-3,4-dihydro-1H-pyrimido[1,6-a]pyrimidin-6(2H)-one] | – | ≤ 100 nM | – |
| CC(C)N1c2cc(OCc3cccc(F)c3F)nc(=O)n2CC[C@@H]1C [E139, (S)-8-((2,3-difluorobenzyl)oxy)-1-isopropyl-2-methyl-3,4-dihydro-1H-pyrimido[1,6-a]pyrimidin-6(2H)-one] | – | ≤ 100 nM | – |
| C[C@H]1CCn2c(cc(OCc3ccc(Oc4cc(F)cc(F)c4)cc3)nc2=O)N1C [E141, (S)-8-((4-(3,5-difluorophenoxy)benzyl)oxy)-1,2-dimethyl-3,4-dihydro-1H-pyrimido[1,6-a]pyrimidin-6(2H)-one] | ≤ 1 nM | – | – |
